According to ChEMBL document CHEMBL5108035, “Acriflavine, an Acridine Derivative for Biomedical Application: Current State of the Art” (J Med Chem, 2022):

What was measured:
[1] = system: Mahlavu; assay: Cytotoxicity against human Mahlavu cells assessed as inhibition of cell viability incubated upto 72 hrs by MTT assay; type: functional, cell-based
[2] = Cytotoxicity against patient-derived human mononuclear cells assessed as cell growth inhibition incubated for 72 hrs by FMCA assay; type: toxicity, cell-based, Mononuclear cell line
[3] = Anticancer activity against patient-derived human CLL tumor cells assessed as tumor growth inhibition incubated for 72 hrs by FMCA assay; type: functional, cell-based; conditions: CLL cell
[4] = Anticancer activity against patient-derived human Colorectal tumor cells assessed as tumor growth inhibition incubated for 72 hrs by FMCA assay; type: functional, cell-based; conditions: Colorectal cancer cell
[5] = system: Ovarian cancer cell line; assay: Anticancer activity against patient-derived human Ovarian tumor cells assessed as tumor growth inhibition incubated for 72 hrs by FMCA assay; type: functional, cell-based

| SMILES | IC50 [1] [µM] | IC50 at 72 h [2] [µM] | IC50 [3] [µM] | IC50 [4] [µM] | IC50 [5] [µM] |
| --- | --- | --- | --- | --- | --- |
| CNC(=O)c1cc(Oc2ccc(NC(=O)Nc3ccc(Cl)c(C(F)(F)F)c3)cc2)ccn1 [SORAFENIB] | 13.4 |  |  |  |  |
| O=c1[nH]cc(F)c(=O)[nH]1 [FLUOROURACIL] |  | 430 | 658 | 755 | 563 |
| CCc1c2c(nc3ccc(OC(=O)N4CCC(N5CCCCC5)CC4)cc13)-c1cc3c(c(=O)n1C2)COC(=O)[C@]3(O)CC [IRINOTECAN] |  |  |  | 89.6 | 75.3 |
